Consider eight compounds from ChEMBL document CHEMBL4308917, “Tripeptide analogues of MG132 as protease inhibitors” (Bioorg Med Chem, 2019).

One may read the IC50 as the midpoint of a concentration-inhibition curve.

Assay [1] can be described thus: Inhibition of recombinant ovine lung calpain-1 protease using BODIPY-FL casein as substrate measured at 30 secs time interval for 30 mins by fluorescence-based assay. Set-up: species or system Ovis aries.
Assay [2] in a line: Inhibition of recombinant ovine lung calpain-2 protease using BODIPY-FL casein as substrate measured at 30 secs time interval for 30 mins by fluorescence-based assay. Set-up: species or system Ovis aries.
The target in assay [3] is T1, Calpain-2 catalytic subunit (Sus scrofa, UniProt P43367).
T1 sequence (P43367 whole entry): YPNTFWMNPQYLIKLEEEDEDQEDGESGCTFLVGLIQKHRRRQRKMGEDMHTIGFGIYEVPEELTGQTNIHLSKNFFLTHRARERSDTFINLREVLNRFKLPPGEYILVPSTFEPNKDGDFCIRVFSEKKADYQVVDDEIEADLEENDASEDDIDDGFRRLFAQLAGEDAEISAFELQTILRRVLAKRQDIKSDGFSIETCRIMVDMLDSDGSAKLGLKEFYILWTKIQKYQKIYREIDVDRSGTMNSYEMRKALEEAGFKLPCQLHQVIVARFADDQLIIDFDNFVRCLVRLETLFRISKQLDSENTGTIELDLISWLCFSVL
The assay is described as follows: Inhibition of recombinant porcine calpain 2 protease using BODIPY-FL casein as substrate measured at 30 secs time interval for 30 mins by fluorescence-based assay.

Assay [4] deals with T2, Proteasome Macropain subunit MB1 (Homo sapiens, UniProt P28074).
T2 sequence (P28074 whole entry): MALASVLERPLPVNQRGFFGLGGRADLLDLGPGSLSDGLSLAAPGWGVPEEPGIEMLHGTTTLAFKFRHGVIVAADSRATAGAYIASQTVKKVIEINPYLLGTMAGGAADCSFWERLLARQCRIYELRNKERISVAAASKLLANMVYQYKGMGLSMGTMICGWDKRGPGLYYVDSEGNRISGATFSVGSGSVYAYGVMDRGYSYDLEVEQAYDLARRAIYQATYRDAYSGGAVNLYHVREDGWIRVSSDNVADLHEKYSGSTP
The assay can be described thus: Inhibition of chymotrypsin like activity of 26S proteasome beta 5 subunit (unknown origin) by fluorescence assay.

The nature of assay [5]: Selectivity ratio of IC50 for chymotrypsin like activity of 26S proteasome beta 5 subunit (unknown origin) to IC50 for recombinant ovine lung calpain 2 protease.
Assay [6] addresses T3, Proteasome Macropain subunit MB1 (Homo sapiens) (UniProt P28074).
T3 sequence (whole entry): T2 sequence (P28074 whole entry)
The assay can be described thus: Ratio of test compound IC50 to MG132 IC50 for chymotrypsin like activity of 26S proteasome beta 5 subunit (unknown origin) by fluorescence assay.

The subject of another assay is Plasmodium falciparum. The assay can be described thus: Antiplasmodial activity against Plasmodium falciparum D10 cultured in human O+ erythrocytes after 50 to 60 hrs by ethidium bromide staining-based flow cytometric analysis. Type of assay: functional, organism-based.
A short description of assay [7]: Selectivity ratio of IC50 for chymotrypsin like activity of rabbit 20S proteasome beta 5 to IC50 for recombinant ovine lung calpain 2 protease.
Assay [8] is described as follows: Inhibition of recombinant ovine lung calpain-2 protease using BODIPY-FL casein as substrate after 10 mins by fluorescence-based assay. Set-up: species or system Ovis aries.
Assay [9] in a line: Inhibition of chymotrypsin like activity of rabbit 20S proteasome beta 5 subunit using Suc-LLVY-AMC as substrate preincubated for 15 mins followed by substrate addition and measured after 2 hrs by fluorescence assay. Also on record: species or system Oryctolagus cuniculus.
For the next assay, the species on record is Ovis aries. The assay can be described thus: Potency index, ratio of MG132 IC50 to test compound IC50 for recombinant ovine lung calpain-2 protease using BODIPY-FL casein as substrate measured at 30 secs time interval for 30 mins by fluorescence-based assay.

Residues, ends and D or L forms follow the SMILES beside them. *: point of attachment. Cbz = O=C(OCc1ccccc1)*

`CC(C)C[C@H](NC(=O)OCc1ccccc1)C(=O)N[C@@H](CC(C)C)C(=O)N[C@@H](CC(C)C)C(=O)[C@@]1(C)CO1`: the IC50 was found to be 9800 nM in assay [1]; 4400 nM in [2]; 4200 nM in assay [3]; 220 nM in assay [4]; 6130 nM in the assay with Plasmodium falciparum. For the same compound, the Ratio IC50 in assay [5] was 0.05; in assay [6], 16 to 428.

Take `C#CCOc1ccc(C[C@@H](C=O)NC(=O)[C@H](CC(C)C)NC(=O)[C@H](CCCCN=[N+]=[N-])NC(=O)OCc2ccccc2)cc1`: the figures for the Ratio IC50 in assay [7] and in [6] were 0.15 and 16 to 428, respectively. For the same compound, the IC50 worked out at 1030 nM in assay [8], 150 nM in assay [9] and 561 nM in the assay with Plasmodium falciparum.

For the compound `C#CCOc1ccc(C[C@@H](C=O)NC(=O)[C@H](CC(C)C)NC(=O)[C@H](Cc2ccccc2)NC(=O)OCc2ccccc2)cc1`, the IC50 stood at 81 nM in assay [1]; 13 nM in [2]; 34 nM in assay [3]; 189 nM in [4]; 250 nM in the assay with Plasmodium falciparum. For the same compound, the Ratio IC50 in assay [5] was 14; in assay [6], 16 to 428; in the assay listed under Ovis aries, greater than 3.

For the compound `CC(C)C[C@H](NC(=O)[C@H](Cc1ccccc1)NC(=O)OCc1ccccc1)C(=O)N[C@H](C=O)Cc1ccccc1` (Cbz-Phe-Leu-Phe-aldehyde), the IC50 came to 51 nM in [1]; 6 nM in assay [2]; 27 nM in assay [3]; 514 nM in [4]; 191 nM in the assay on Plasmodium falciparum. In addition, the Ratio IC50 in assay [5] is 86; in [6], 16 to 428; in the assay filed under Ovis aries, greater than 3.

As for `CC(C)C[C@@H](C=O)NC(=O)[C@H](CC(C)C)NC(=O)[C@H](CC(C)C)NC(=O)OCc1ccccc1` [MG-132] (Cbz-Leu-Leu-Leu-aldehyde), the IC50 was determined as 120 nM in assay [1], 311 nM in [2] and 35 nM in the assay with Plasmodium falciparum.

On to `CC(C)C[C@@H](C=O)NC(=O)[C@H](CO)NC(=O)[C@H](CC(C)C)NC(=O)OCc1ccccc1` (Cbz-Leu-Ser-Leu-aldehyde), for which the IC50 in [1] was 40 nM; in assay [2], 99 nM; in assay [3] it was 160 nM; in [4] it was 269 nM; with Plasmodium falciparum it was 213 nM. The Ratio IC50 was 2.7 in assay [5], 16 to 428 in assay [6] and greater than 3 in the assay filed under Ovis aries.

Regarding `C#CCOc1ccc(C[C@@H](C=O)NC(=O)[C@@H](NC(=O)[C@H](CCCCN=[N+]=[N-])NC(=O)OCc2ccccc2)[C@@H](C)CC)cc1`, the Ratio IC50 in assay [7] is 0.05; in [6] it was 16 to 428. Also, the IC50 in [8] was 390 nM; in [9], 20 nM; with Plasmodium falciparum, 146 nM.

For the compound `CC(C)C[C@@H](C=O)NC(=O)[C@H](CC(C)C)NC(=O)[C@H](Cc1ccccc1)NC(=O)OCc1ccccc1` (Cbz-Phe-Leu-Leu-aldehyde), the IC50 in assay [1] is 8 nM; in assay [2], 11 nM; in [3] it was 6 nM; in assay [4], 139 nM; with Plasmodium falciparum it was 62 nM. Further, the Ratio IC50 is 13 in assay [5], 16 to 428 in assay [6] and greater than 3 in the assay listed under Ovis aries.
